Consider 2 compounds from US20210178009A1, “WOUND CARE PRODUCTS COMPRISING ALEXIDINE” (TELEFLEX MEDICAL INCORPORATED, priority 2015, published 2021).

Assay in all cases: Time to kill comparison
Holding throughout (type): cell-based

In one assay the test system is Candida albicans. As to conditions: 128 ppm; for exposure time to complete kill: C. albicans, challenge 10^4-10^5 CFU/mL; for Number of Microbial Colonies: Candida albicans, 5 replicates, TNTC = too numerous to count. As to the method:
(§1) Alexidine and Chlorhexidine, both at a concentration of 128 ppm were exposed to a Gram positive bacteria (Staphylococcus aureus), a Gram negative bacteria (Pseudomonas aeruginosa), and a fungus (Candida albicans). The challenge concentration for each organism was 10^4-10^5 CFU/mL, and the exposure time varied from 0.5-60 minutes. […] Complete kill of all three organisms was observed within 0.5-1 minute of Alexidine exposure.

A further assay deals with Pseudomonas aeruginosa. As to conditions: P. aeruginosa, 128 ppm, challenge 10^4-10^5 CFU/mL. The procedure:
as §1

For another assay, the system named is Staphylococcus aureus. As to conditions: 128 ppm; for exposure time to complete kill: S. aureus, challenge 10^4-10^5 CFU/mL; for Number of Microbial Colonies: Staphylococcus aureus, 5 replicates, TNTC = too numerous to count. As to the method: as §1

As for `CCCCC(CC)CNC(=N)NC(=N)NCCCCCCNC(=N)NC(=N)NCC(CC)CCCC` (stereo not drawn) [Alexidine], the “exposure time to complete kill” value with Candida albicans, in the assay with Pseudomonas aeruginosa and in the assay with Staphylococcus aureus was 0.5 to 1 min in each case.

As for `[H]/N=C(\N/C(=N/[H])NCCCCCCNC(=N)NC(=N)Nc1ccc(Cl)cc1)Nc1ccc(Cl)cc1` [Chlorhexidine], the “exposure time to complete kill” value in the assay on Candida albicans was 60 min; with Pseudomonas aeruginosa, 5 min; in the assay on Staphylococcus aureus, 60 min. Besides, the “Number of Microbial Colonies” value in the assay with Candida albicans (exposure 0.5 minutes), with Candida albicans (exposure 1 minute), with Candida albicans (exposure 5 minutes), in the assay with Staphylococcus aureus (exposure 0.5 minutes), with Staphylococcus aureus (exposure 1 minute) and with Staphylococcus aureus (exposure 5 minutes) was “TNTC” in each case.
